Measured values: paper PMC6481723, “Fibroblast migration correlates with matrix softness. A study in knob-hole engineered fibrin” (APL Bioengineering, 2018)
Where two headings read alike, the source gives them in different places. Ends that are not written are not given here.

What was measured:
bovine fibrinogen = biological target: T1, bovine fibrinogen (Bos taurus, UniProt P02672+P02676+P12799); experiment: Isothermal titration calorimetry (ITC) binding to fibrinogen; conditions: ITC in HBS; peptides 5.7-5.9 mM titrated into 0.175 mM fibrinogen; PEG-pep1 1.7 mM or PEG-pep2 5.2 mM into 0.012 mM fibrinogen; n = 3 independent samples
T1 sequence (P12799 25-444): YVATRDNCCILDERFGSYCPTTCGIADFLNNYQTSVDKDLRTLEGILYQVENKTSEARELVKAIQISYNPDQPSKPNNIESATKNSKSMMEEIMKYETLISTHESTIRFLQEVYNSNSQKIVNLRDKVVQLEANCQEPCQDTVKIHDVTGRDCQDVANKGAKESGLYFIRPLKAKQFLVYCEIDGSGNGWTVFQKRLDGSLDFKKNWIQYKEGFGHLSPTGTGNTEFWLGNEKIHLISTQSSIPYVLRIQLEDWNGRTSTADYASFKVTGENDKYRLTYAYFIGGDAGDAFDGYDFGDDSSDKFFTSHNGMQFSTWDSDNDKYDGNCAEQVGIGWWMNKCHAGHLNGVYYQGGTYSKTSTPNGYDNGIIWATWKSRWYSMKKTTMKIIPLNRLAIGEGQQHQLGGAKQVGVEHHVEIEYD
T1 sequence (P02676 1-468): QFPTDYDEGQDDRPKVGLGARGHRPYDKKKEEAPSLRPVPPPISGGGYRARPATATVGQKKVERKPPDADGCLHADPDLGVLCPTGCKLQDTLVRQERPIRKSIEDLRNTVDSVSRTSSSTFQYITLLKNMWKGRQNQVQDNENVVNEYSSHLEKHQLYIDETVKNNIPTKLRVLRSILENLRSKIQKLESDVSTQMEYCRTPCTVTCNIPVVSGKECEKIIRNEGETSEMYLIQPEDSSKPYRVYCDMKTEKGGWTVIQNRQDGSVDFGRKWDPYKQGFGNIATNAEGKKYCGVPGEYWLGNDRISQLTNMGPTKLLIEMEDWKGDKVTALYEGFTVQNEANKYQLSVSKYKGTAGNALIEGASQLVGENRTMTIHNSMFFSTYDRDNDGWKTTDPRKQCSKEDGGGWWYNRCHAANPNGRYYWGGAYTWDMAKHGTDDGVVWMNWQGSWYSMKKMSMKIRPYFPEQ
T1 sequence (P02672 20-615 partner): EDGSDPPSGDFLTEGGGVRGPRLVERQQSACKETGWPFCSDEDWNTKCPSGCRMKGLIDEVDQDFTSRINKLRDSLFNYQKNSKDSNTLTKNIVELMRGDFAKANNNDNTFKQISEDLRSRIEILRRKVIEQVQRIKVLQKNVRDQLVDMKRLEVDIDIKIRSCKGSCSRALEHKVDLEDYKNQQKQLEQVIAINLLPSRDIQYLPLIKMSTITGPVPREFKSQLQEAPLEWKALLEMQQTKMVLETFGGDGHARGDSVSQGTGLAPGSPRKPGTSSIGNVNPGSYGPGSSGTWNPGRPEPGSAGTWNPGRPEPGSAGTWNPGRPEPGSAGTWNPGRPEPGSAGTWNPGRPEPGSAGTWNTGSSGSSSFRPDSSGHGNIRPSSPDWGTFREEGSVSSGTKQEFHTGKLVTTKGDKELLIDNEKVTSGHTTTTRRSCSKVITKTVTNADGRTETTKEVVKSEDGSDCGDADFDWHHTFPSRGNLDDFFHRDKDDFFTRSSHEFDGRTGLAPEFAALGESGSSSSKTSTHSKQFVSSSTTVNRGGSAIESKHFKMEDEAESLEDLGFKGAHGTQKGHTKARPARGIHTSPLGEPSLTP
Procedure: (§1) Two techniques were used to confirm that PEG-peptides retained the ability to bind to fibrinogen (Fig. 1 and Table I, right): Fluorescence Anisotropy (FA) and Isothermal Titration Calorimetry (ITC). In FA measurements [Fig. 1(a)], the dissociation constant (Kd) was determined via saturation experiments for the non-conjugated peptides, and via competition experiments for the PEG-peptides. In the first case, saturation was achieved by adding increasing amounts of fibrinogen to a given amount of fluorescein-labelled peptides. In competition experiments, fibrinogen was pre-complexed with fluorescein-labelled peptides; these low molecular weight fluorophores were displaced upon addition of non-labelled conjugates, with a corresponding decrease in the polarization of the emitted light (smaller tumbling time).
The sample cell for this study can contain up to 270 μl of liquid. Fibrinogen/peptide samples were prepared adding 2 μl aliquots of peptide solution (5.91, 5.92, and 5.73 mM for Pep1, Pep2, and Pep3, respectively) under continuous stirring to 200 μl of 0.175 mM of bovine fibrinogen solution. Fibrinogen/PEG-peptide complexes were prepared adding 2 μl of 1.7 mM of PEG-pep1 or 5.2 mM of PEG-pep2 to 200 μl of 0.012 mM of bovine fibrinogen solution. Note that fibrinogen was prepared as follow: 60 mg of fibrinogen were dissolved in 1 mL HBS for 2 h at 37 °C and then dialyzed (Float-A-Lyzer G2 MWCO: 0.5–1 kDa, Spectrum, Inc.) against HBS for 24 h.

fibrinogen [1] = biological target: T2, fibrinogen (Bos taurus, UniProt P02672+P02676+P12799); experiment: Fluorescence anisotropy (FA) saturation experiments with fluorescein-labelled peptides; format: binding; conditions: 5IAF-labelled peptide 25-30 μM, fibrinogen 50 nM-103 μM, HBS, 1 h room temperature; Hill model; n = 3
T2 sequence (P12799 25-444): T1 sequence (P12799 25-444)
T2 sequence (P02676 1-468): T1 sequence (P02676 1-468)
T2 sequence (P02672 20-615 partner): T1 sequence (P02672 20-615 partner)
Procedure: as §1
Equal volumes (100 μl) of a labelled peptide solution (5IAF-pep1, 5IAF-pep2, or 5IAF-pep3) in HEPES (4-(2-hydroxyethyl)-1-piperazineethanesulfonic acid)-buffered saline (HBS) and of a fibrinogen solution were mixed together by gentle pipetting into a 96-well plate to obtain final concentrations of fibrinogen ranging from 50 nM to 103 μM, and a constant peptide concentration, i.e., 26 μM for 5IAF-pep1, 25 μM for 5IAF-pep2, or 30 μM for 5IAF-pep3. […] All mixed reagents were incubated for 1 h at room temperature before recording fluorescence polarization values.

fibrin clotting = conditions: cited from earlier work
fibrinogen [2] = biological target: T2, fibrinogen; experiment: Fluorescence anisotropy (FA) competition experiments (displacement of 5IAF-peptides from fibrinogen); format: binding; conditions: 36 μM fibrinogen pre-complexed with 5IAF-pep1 (0.25 μM) or 5IAF-pep2 (0.8 μM), displaced by PEG-peptide, 1 h 37 °C, HBS; n = 3
Procedure: as §1
Fibrinogen/5IAF-pep1 or 5IAF-pep2 complexes were prepared as described in the saturation experiments using 50 μl initial volumes and keeping the fibrinogen concentration fixed. Solutions were pre-incubated for 1 h at room temperature before 50 μl of PEG-peptide 1 or 2 solutions in HBS was added into the wells to obtain a final volume of 150 μl per well. Final concentrations were 36 μM fibrinogen; 0.25 μM 5IAF-pep1 and 0.6 μM to 1.2 mM PEG-pep1; 0.8 μM 5IAF-pep2; and 0.2 μM to 5 mM PEG-pep2. Polarization values were measured after 1 h of incubation at 37 °C. […]

[3] = tested on: adult Human Dermal Fibroblasts (HDFa); experiment: Fibrin-in-fibrin HDFa migration assay (radial invasion); format: cell-based; conditions: 220 KIU of aprotinin in the media
Procedure: This migration assay is based on a fibrin-in-fibrin assay: when a volume of HDFa-laden fibrinogen solution is injected into a gelling fibrinogen-based formulation, cells migrate from the clot into the surrounding matrix; the maximum distance covered in the unit time [Fig. 8(a) top and insert in the bottom graph] is a measure of the cell migration capacity. This model is particularly advantageous to assess the migration of cells separately from other phenomena; for example, if seeded homogeneously and/or moving as a coherent front, cells can rapidly remodel and contract the matrix,[41] and this can profoundly influence the characteristics of their migration too.[42]
Standard cell culture methods are reported in the supplementary material, Sec. 1.4SI. For the migration assays, adult Human Dermal Fibroblasts (HDFa) were gently suspended in 12.5 mg/ml fibrinogen (in HBS) at a final cell density of 3 × 10^7 cells/ml. […] The cell migration rate was measured by analyzing acquired images with ImageJ (v1.49p, http://rsb.info.nih.gov/ij): the migration area was approximated to a circle and the cell invasion was thus quantified as the variation of the initial diameter, as previously reported by Lutolf et al.[28] An average of nine time points per diameter were measured from day 0 to 8, returning the average migration rate (μm/day). […]

Kd (bovine fibrinogen) [µM]	Kd (fibrinogen [1]) [µM]	Substance	also measured
351 ± 10	335 ± 6	GHRPGCG [Pep2]	–
44 ± 9	40 ± 1	GPRPGCG [Pep1]	–

Second part, the substance before the results:

Substance	Kd (bovine fibrinogen) [µM]	Kd (fibrinogen [1]) [µM]	also measured
GPRP [glycine-proline-arginine-proline]	–	–	effect on fibrin clotting (fibrin clotting; 1:20 fibrinogen/peptide molar ratio): significantly reduce fibrin clotting; effect on fibrin clotting (fibrin clotting; above 1:100 fibrinogen/peptide molar ratio): completely prevent
PEG-pep1: 2 kDa PEG vinyl sulfone conjugated to Pep1; rest of material PEG-ME (GPRPGCG; Cys6 thiol joined by thioether (Michael addition) to 2 kDa PEG vinyl sulfone; free N-terminus (A-knob mimic); about 20 mol% of the material is PEG-mercaptoethanol; The GC)	103 ± 5	–	Kd (fibrinogen [2]): 135 ± 8 µM
aprotinin	–	–	HDFa migration rate in presence vs absence of the inhibitor [3]: virtually identical migration rates
